Experiments:
Assay type in all cases: in vivo
indian jointvetch = assay: Herbicidal activity test against upland field weeds (foliar treatment test); conditions: 50 g ai/ha, scale 0-100
Outline: (§1)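 Visual 0–100 control ratings relative to untreated plants, taken 14 (or 21) days after spraying foliage at 50 or 75 g a.i./ha. Spray solution: 50% acetone with 0.1% Tween-20; plants kept in greenhouse at 30±5 °C, 14 h light/10 h dark.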

bindweed = assay: as above; conditions: 50 g ai/ha, scale 0-100
Outline: as §1

barnyard grass = assay: as above; conditions: Echinochloa crus-galli, 50 g ai/ha, scale 0-100
Outline: as §1

cocklebur = assay: as above; conditions: Xanthium strumarium, 50 g ai/ha, scale 0-100
Outline: as §1

soybean = assay: Phytotoxicity test for upland field crops (foliar treatment test); parameters: key: 0 (no harm); 9 (complete withered)
Outline: (§2)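 Post-emergence spray at 19–300 g a.i./ha (acetone/Tween-20 diluent, 100 ml/m²) onto greenhouse-grown plants. Damage rated 7 and 14 (optionally 21) days later on a 0–9 scale relative to untreated plants.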

cotton = assay: as above; parameters: key: 0 (no harm); 9 (complete withered)
Outline: as §2

corn = assay: as above; parameters: key: 0 (no harm); 9 (complete withered)
Outline: as §2

rice = assay: as above; parameters: key: 0 (no harm); 9 (complete withered)
Outline: as §2

wheat = assay: as above; parameters: key: 0 (no harm); 9 (complete withered)
Outline: as §2

[1] = 50 g ai/ha, Soybean (7 days after treatment)
[2] = 50 g ai/ha, Soybean (14 days after treatment)
[3] = 100 g ai/ha, Soybean (7 days after treatment)
[4] = 100 g ai/ha, Soybean (14 days after treatment)
[5] = 50 g ai/ha, Cotton (7 days after treatment)
[6] = 50 g ai/ha, Cotton (14 days after treatment)
[7] = 100 g ai/ha, Cotton (7 days after treatment)
[8] = 100 g ai/ha, Cotton (14 days after treatment)
[9] = 50 g ai/ha, Corn (7 days after treatment)
[10] = 50 g ai/ha, Corn (14 days after treatment)
[11] = 100 g ai/ha, Corn (7 days after treatment)
[12] = 100 g ai/ha, Corn (14 days after treatment)
[13] = 50 g ai/ha, Rice (7 days after treatment)
[14] = 50 g ai/ha, Rice (14 days after treatment)
[15] = 100 g ai/ha, Rice (7 days after treatment)
[16] = 100 g ai/ha, Rice (14 days after treatment)
[17] = 50 g ai/ha, Wheat (7 days after treatment)
[18] = 50 g ai/ha, Wheat (14 days after treatment)
[19] = 100 g ai/ha, Wheat (7 days after treatment)
[20] = 100 g ai/ha, Wheat (14 days after treatment)

Structure (SMILES) | pest or weed control at 50 g/ha (indian jointvetch) [%] | pest or weed control at 50 g/ha (bindweed) [%] | pest or weed control at 50 g/ha (barnyard grass) [%] | pest or weed control at 50 g/ha (cocklebur) [%] | Foliar treatment phytotoxicity, Soybean (soybean; [1]) | Foliar treatment phytotoxicity, Soybean (soybean; [2]) | Foliar treatment phytotoxicity, Soybean (soybean; [3]) | Foliar treatment phytotoxicity, Soybean (soybean; [4]) | Foliar treatment phytotoxicity, Cotton (cotton; [5]) | Foliar treatment phytotoxicity, Cotton (cotton; [6]) | Foliar treatment phytotoxicity, Cotton (cotton; [7]) | Foliar treatment phytotoxicity, Cotton (cotton; [8]) | Foliar treatment phytotoxicity, Corn (corn; [9]) | Foliar treatment phytotoxicity, Corn (corn; [10]) | Foliar treatment phytotoxicity, Corn (corn; [11]) | Foliar treatment phytotoxicity, Corn (corn; [12]) | Foliar treatment phytotoxicity, Wheat (wheat; [17]) | Foliar treatment phytotoxicity, Wheat (wheat; [18]) | Foliar treatment phytotoxicity, Wheat (wheat; [19]) | Foliar treatment phytotoxicity, Wheat (wheat; [20]) | also measured
CON(Cc1nnn(C)n1)Cc1nc(C(F)(F)F)ccc1C(=O)Nc1nnnn1C [Compound No. 2-97, 2-((methoxy((2-methyl-2H-tetrazol-5-yl)methyl)amino)methyl)-N-(1-methyl-1H-tetrazol-5-yl)-6-(trifluoromethyl)nicotinamide] | 95 | 80 | 95 | 95 | 5 | 6 | 7 | 9 | 5 | 9 | 6 | 9 | 0 | 0 | 2 | 1 | 0 | 0 | 0 | 0 | Foliar treatment phytotoxicity, Rice (rice; [13]): 6; Foliar treatment phytotoxicity, Rice (rice; [14]): 8; Foliar treatment phytotoxicity, Rice (rice; [15]): 6; Foliar treatment phytotoxicity, Rice (rice; [16]): 9
Cn1nnc(CSCc2nc(C(F)(F)F)ccc2C(=O)N(c2nnnn2C)S(C)(=O)=O)n1 [Compound No. 2-110, N-(1-methyl-1H-tetrazol-5-yl)-2-((((2-methyl-2H-tetrazol-5-yl)methyl)thio)methyl)-N-(methylsulfonyl)-6-(trifluoromethyl)nicotinamide] | 95 | 98 | 20 | 95 | – | – | – | – | – | – | – | – | 0 | 0 | 0 | 0 | 0 | 0 | 0 | 0 | –
Cc1nc(COCc2nc(C(F)(F)F)ccc2C(=O)Nc2nnnn2C)nn1C [Compound No. 2-116, 2-(((1,5-dimethyl-1H-1,2,4-triazol-3-yl)methoxy)methyl)-N-(1-methyl-1H-tetrazol-5-yl)-6-(trifluoromethyl)nicotinamide] | 40 | 90 | 98 | 98 | 2 | 3 | 3 | 5 | 2 | 1 | 3 | 2 | 1 | 0 | 2 | 2 | 0 | 0 | 0 | 0 | Foliar treatment phytotoxicity, Rice (rice; [13]): 4; Foliar treatment phytotoxicity, Rice (rice; [14]): 5; Foliar treatment phytotoxicity, Rice (rice; [15]): 4; Foliar treatment phytotoxicity, Rice (rice; [16]): 5
Cc1nc(COCc2nc(C(F)(F)F)ccc2C(=S)Nc2nnnn2C)nn1C [Compound No. 2-117, 2-(((1,5-dimethyl-1H-1,2,4-triazol-3-yl)methoxy)methyl)-N-(1-methyl-1H-tetrazol-5-yl)-6-(trifluoromethyl)pyridin-3-carbothioamide] | 40 | 70 | 98 | 90 | 3 | 5 | 4 | 6 | 3 | 2 | 4 | 2 | 1 | 1 | 3 | 2 | 0 | 0 | 1 | 0 | Foliar treatment phytotoxicity, Rice (rice; [13]): 3; Foliar treatment phytotoxicity, Rice (rice; [14]): 6; Foliar treatment phytotoxicity, Rice (rice; [15]): 4; Foliar treatment phytotoxicity, Rice (rice; [16]): 5
Cn1nc(COCc2nc(C(F)(F)F)ccc2C(=O)Nc2nnnn2C)nc1C#N [Compound No. 2-134, 2-(((5-cyano-1-methyl-1H-1,2,4-triazol-3-yl)methoxy)methyl)-N-(1-methyl-1H-tetrazol-5-yl)-6-(trifluoromethyl)nicotinamide] | 70 | 98 | 98 | 50 | 4 | 6 | 4 | 8 | 3 | 2 | 3 | 8 | 0 | 0 | 0 | 0 | 0 | 0 | 0 | 0 | Foliar treatment phytotoxicity, Rice (rice; [13]): 3; Foliar treatment phytotoxicity, Rice (rice; [14]): 6; Foliar treatment phytotoxicity, Rice (rice; [15]): 3; Foliar treatment phytotoxicity, Rice (rice; [16]): 7
Cn1nc(COCc2nc(C(F)(F)F)ccc2C(=O)Nc2nnnn2C)nc1Br [Compound No. 2-136, 2-(((5-bromo-1-methyl-1H-1,2,4-triazol-3-yl)methoxy)methyl)-N-(1-methyl-1H-tetrazol-5-yl)-6-(trifluoromethyl)nicotinamide] | 20 | 50 | 70 | 95 | 4 | 6 | 4 | 6 | 3 | 6 | 3 | 8 | 0 | 0 | 2 | 3 | 0 | 0 | 0 | 0 | Foliar treatment phytotoxicity, Rice (rice; [13]): 4; Foliar treatment phytotoxicity, Rice (rice; [14]): 6; Foliar treatment phytotoxicity, Rice (rice; [15]): 5; Foliar treatment phytotoxicity, Rice (rice; [16]): 7

— patent US12495798B2, “Nicotinamide compound and herbicidal composition comprising compound” (KOREA RESEARCH INSTITUTE OF CHEMICAL TECHNOLOGY, priority 2019, dated 2025)
